A word on the MIC: it is the lowest concentration that inhibits growth of the organism.

Drawing on US20050203102A1, “antibacterial agents” (priority 2004, published 2005), this text covers MIC for 17 compounds.

Converted amounts (≈) assume the structure as drawn.

Common to all, as to assay: Antimicrobial testing, Agar Dilution Method (NCCLS), MIC
Assay type in all cases: cell-based

One experiment deals with S. epidermidis MRO 02002. The conditions noted are these: Staphylococcus epidermidis, MRO02002, Mueller Hinton Agar, 35° C., 20 hours, read-out: Antimicrobial Screening (MIC) S. epidermidis MRO 02002. As to the method: (§1) Briefly, the compounds of invention were weighed, dissolved in Dimethyl Sulfoxide, serially diluted in the same solvent and then incorporated into molten Mueller Hinton Agar in a petridish before solidification, with each petridish containing a different concentration of a compound.
(§2) The Bacterial Inoculum was prepared by touching the tops of 3 to 5 well isolated bacterial colonies with the same morphological appearance from an 18 hour old culture with an inoculating loop, transferring the growth to a tube containing 5 ml of normal saline and adjusting the turbidity of the saline suspension to 0.5 Macfarland Turbidity Standard equivalent to a bacterial population of 1.5×10^8 colony forming units (CFU) per millilitre of suspension.
(§3) The bacterial inoculum prepared in the above manner was inoculated onto petri dishes containing Mueller Hinton Agar which had earlier been incorporated with different dilutions of the compounds of invention by a Multipoint Inoculator with each inoculum spot containing approximately 1×10^4 colony forming units (CFU) of bacteria.
(§4) The inoculated petridishes were incubated at 35° C. in an ambient atmosphere for 20 hours. Petridishes containing different concentrations of Vancomycin and Oxacillin and inoculated with Staphylococcus aureus, Coagulase Negative Staphylococci and Enterococci were incubated for 24 hours.
(§5) The following minimum inhibitory concentrations (μg/ml) were obtained for representative compounds of the invention which are given in the following table: […]

The test system of another experiment is E. faecalis ATCC 29212. The conditions noted are these: Enterococcus faecalis, ATCC29212, Mueller Hinton Agar, 35° C., 20 hours, read-out: Antimicrobial Screening (MIC) E. faecalis ATCC 29212. How it is done:
as §1, §2, §3, §4, §5

The next experiment relates to S. aureus MRO 00001. As to conditions: Staphylococcus aureus, MRO00001, Mueller Hinton Agar, 35° C., 20 hours, read-out: Antimicrobial Screening (MIC) S. aureus MRO 00001. How it is done:
as §1, §2, §3, §4, §5

A further experiment has as its system E. faecium ATCC 700221. As to conditions: Enterococcus faecium, ATCC700221, Mueller Hinton Agar, 35° C., 20 hours, read-out: Antimicrobial Screening (MIC) E. faecium ATCC 700221. As to the method:
as §1, §2, §3, §4, §5

Consider `CC(=O)NC[C@H]1CN(c2ccc(N3CCN(c4ccc(C=O)cc4)CC3)c(F)c2)C(=O)O1` [Example 1], for which the MIC with S. epidermidis MRO 02002 came out at 1 µg/mL (≈ 2.27 µM); in the experiment on E. faecalis ATCC 29212 it was 2 µg/mL (≈ 4.54 µM); with S. aureus MRO 00001, 1 µg/mL (≈ 2.27 µM); in the experiment with E. faecium ATCC 700221 it was 1 µg/mL (≈ 2.27 µM).

Take `CC(=O)NC[C@H]1CN(c2ccc(N3CCN(c4ccc(/C=C5/SC(=S)N(CC(=O)O)C5=O)cc4)CC3)c(F)c2)C(=O)O1` [Example 2]: the MIC with S. epidermidis MRO 02002, with E. faecalis ATCC 29212, in the experiment with S. aureus MRO 00001 and in the experiment with E. faecium ATCC 700221 was 2 µg/mL (≈ 3.26 µM) each time.

As for `CC(=O)NC[C@H]1CN(c2ccc(N3CCN(c4ccc(/C=C5\C(=O)Nc6ccccc65)cc4)CC3)c(F)c2)C(=O)O1` [Example 3], the MIC in the experiment with S. epidermidis MRO 02002 was over 16 µg/mL; in the experiment with E. faecalis ATCC 29212, over 16 µg/mL; in the experiment with S. aureus MRO 00001 it was over 16 µg/mL; in the experiment on E. faecium ATCC 700221, 16 µg/mL (≈ 28.8 µM).

With `CC(=O)NC[C@H]1CN(c2ccc(N3CCN(c4ccc(/C=C5/SC(=O)NC5=O)cc4)CC3)c(F)c2)C(=O)O1` [Example 4], the MIC in the experiment on S. epidermidis MRO 02002, in the experiment on E. faecalis ATCC 29212, with S. aureus MRO 00001 and in the experiment on E. faecium ATCC 700221 was 1 µg/mL (≈ 1.85 µM) throughout.

Regarding `CC(=O)NC[C@H]1CN(c2ccc(N3CCN(c4ccc(/C=C5/SC(=S)NC5=O)cc4)CC3)c(F)c2)C(=O)O1` [Example 5], the minimal inhibitory concentration (MIC) in the experiment on S. epidermidis MRO 02002 was 1 µg/mL (≈ 1.8 µM); in the experiment on E. faecalis ATCC 29212 it was 2 µg/mL (≈ 3.6 µM); in the experiment with S. aureus MRO 00001, 1 µg/mL (≈ 1.8 µM); in the experiment with E. faecium ATCC 700221, 1 µg/mL (≈ 1.8 µM).

For the compound `CC(=O)NC[C@H]1CN(c2ccc(N3CCN(c4ccc(CC5C(=O)Nc6ccccc65)cc4)CC3)c(F)c2)C(=O)O1` (some centres unmarked) [Example 6], the MIC with S. epidermidis MRO 02002, in the experiment on E. faecalis ATCC 29212, with S. aureus MRO 00001 and in the experiment on E. faecium ATCC 700221 was 4 µg/mL (≈ 7.17 µM) throughout.

On to `CC(=O)NC[C@H]1CN(c2ccc(N3CCN(c4ccc(CC5SC(=O)NC5=O)cc4)CC3)c(F)c2)C(=O)O1` (some centres unmarked) [Example 7], for which the MIC in the experiment on S. epidermidis MRO 02002, in the experiment with E. faecalis ATCC 29212, in the experiment with S. aureus MRO 00001 and in the experiment with E. faecium ATCC 700221 was 8 µg/mL (≈ 14.8 µM) in each case.

`COC(=S)NC[C@H]1CN(c2ccc(N3CCN(c4ccc(/C=C5\SC(=O)NC5=O)cc4)CC3)c(F)c2)C(=O)O1` [Example 8, (S)-N-3-[3-fluoro-4-(4-(5-methylene-1,3-thiazolidine-2,4-dione)phenylpiperazin-1-yl)phenyll-1,3-oxazolidin-2-one-5-methylthio carbamate]: the MIC with S. epidermidis MRO 02002, with E. faecalis ATCC 29212, in the experiment on S. aureus MRO 00001 and in the experiment on E. faecium ATCC 700221 was 0.5 µg/mL (≈ 0.875 µM) throughout.

Regarding `COC(=O)NC[C@H]1CN(c2ccc(N3CCN(c4ccc(/C=C5\SC(=O)NC5=O)cc4)CC3)c(F)c2)C(=O)O1` [Example 9, (S)-N-3-13-fluoro-4-(4-(5-methylene-1,3-thiazolidine-2,4-dione)phenylpiperazin-1-yl)phenyll-1,3-oxazolidin-2-one-5-methyl carbamate], the MIC in the experiment on S. epidermidis MRO 02002 was determined as 2 µg/mL (≈ 3.6 µM); in the experiment with E. faecalis ATCC 29212 it was 1 µg/mL (≈ 1.8 µM); in the experiment on S. aureus MRO 00001, 1 µg/mL (≈ 1.8 µM); with E. faecium ATCC 700221 it was 0.5 µg/mL (≈ 0.9 µM).

Take `COC(=O)NC[C@H]1CN(c2ccc(N3CCN(c4ccc(/C=C5/SC(=S)N(CC(=O)O)C5=O)cc4)CC3)c(F)c2)C(=O)O1` [Example 10]: the MIC in the experiment with S. epidermidis MRO 02002, in the experiment with E. faecalis ATCC 29212, with S. aureus MRO 00001 and in the experiment on E. faecium ATCC 700221 was 8 µg/mL (≈ 12.7 µM) throughout.

As for `COC(=O)NC[C@H]1CN(c2ccc(N3CCN(c4ccc(/C=C5/SC(=S)NC5=O)cc4)CC3)c(F)c2)C(=O)O1` [Example 11], the MIC in the experiment on S. epidermidis MRO 02002, with E. faecalis ATCC 29212, in the experiment on S. aureus MRO 00001 and in the experiment on E. faecium ATCC 700221 was over 16 µg/mL in each case.

`CCOC(=O)NC[C@H]1CN(c2ccc(N3CCN(c4ccc(/C=C5/SC(=S)N(CC(=O)O)C5=O)cc4)CC3)c(F)c2)C(=O)O1` [Example 12]: the MIC in the experiment with S. epidermidis MRO 02002, in the experiment with E. faecalis ATCC 29212, with S. aureus MRO 00001 and in the experiment with E. faecium ATCC 700221 was over 16 µg/mL each time.

`CCOC(=O)NC[C@H]1CN(c2ccc(N3CCN(c4ccc(/C=C5/SC(=S)NC5=O)cc4)CC3)c(F)c2)C(=O)O1` [Example 13]: the MIC in the experiment on S. epidermidis MRO 02002, in the experiment on E. faecalis ATCC 29212, in the experiment on S. aureus MRO 00001 and in the experiment on E. faecium ATCC 700221 was over 16 µg/mL throughout.

On to `COC(=O)NC[C@H]1CN(c2ccc(N3CCN(c4ccc(CC5SC(=O)NC5=O)cc4)CC3)c(F)c2)C(=O)O1` (stereo partly drawn) [Example 14, [(5S)-3-[3-fluoro-4-(4-(5-methy-1,3-thiazolidine-2,4-dione)phenylpiperazin-1-yl)phenyll-1,3-oxazolidin-2-one-5-methyl carbamate], for which the MIC with S. epidermidis MRO 02002 is 8 µg/mL (≈ 14.3 µM); with E. faecalis ATCC 29212, 8 µg/mL (≈ 14.3 µM); in the experiment on S. aureus MRO 00001 it was 8 µg/mL (≈ 14.3 µM); in the experiment with E. faecium ATCC 700221, 4 µg/mL (≈ 7.17 µM).

For `CCOC(=O)NC[C@H]1CN(c2ccc(N3CCN(c4ccc(CC5C(=O)Nc6ccccc65)cc4)CC3)c(F)c2)C(=O)O1` (some centres unmarked) [Example 15], the MIC in the experiment with S. epidermidis MRO 02002, with E. faecalis ATCC 29212, with S. aureus MRO 00001 and in the experiment on E. faecium ATCC 700221 was over 16 µg/mL in each case.

In the case of `CCOC(=O)NC[C@H]1CN(c2ccc(N3CCN(c4ccc(CC5SC(=S)NC5=O)cc4)CC3)c(F)c2)C(=O)O1` (some centres unmarked) [Example 16], the MIC in the experiment on S. epidermidis MRO 02002, with E. faecalis ATCC 29212, in the experiment on S. aureus MRO 00001 and in the experiment on E. faecium ATCC 700221 was over 16 µg/mL each time.

For the compound `COC(=O)NC[C@H]1CN(c2ccc(N3CCN(c4ccc(CC5C(=O)Nc6ccccc65)cc4)CC3)c(F)c2)C(=O)O1` (some centres unmarked) [Example 17], the MIC in the experiment on S. epidermidis MRO 02002, in the experiment with E. faecalis ATCC 29212, in the experiment with S. aureus MRO 00001 and with E. faecium ATCC 700221 was 4 µg/mL (≈ 6.97 µM) each time.
